Results reported in the supplement of paper PMC10883282.

Assays:
SK-ES-1 [1] = experiment: relative viability vs DMSO control (72 h) (fraction); higher = more viable cells
Outline: (§1)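 Plates held 72 h at 37 °C and 5% CO2 contained sarcoma cell lines seeded in 384-well format to reach 80–90% confluence, plus 2.5 µl of serially diluted compound added after 24 h. Source plate concentrations ran from 10 mM to 0.0002 mM, with 0.1% DMSO as vehicle and a 5 µM positive control. Percent growth from ATPLite readings, averaged over up to triplicate wells, gave relative viability. Values were rescaled with 1 as full and 0 as none.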

RD-ES [2] = experiment: as above
Outline: as §1

KHOS-240S [3] = experiment: as above
Outline: as §1

RD [4] = experiment: as above
Outline: as §1

SW982 [5] = experiment: as above
Outline: as §1

SK-ES-1 [6] = experiment: standardised AUC of viability dose-response curve (72 h) (fraction (0-1)); higher = less growth inhibition (more resistant)
Outline: (§2)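 After 72 h with 2.5 µl of compound (compound-plate series 10 mM to 0.0002 mM), triplicate wells of sarcoma cell lines in 384-well plates were read with ATPLite, with viability scaled 1 (full) to 0 (none) and fitted with a four-parameter log-logistic model. The values give the standardised area under the dose-response curve in log-dose space from a modified drexplorer computeAUC. A value of 1 means no response and 0 means full response.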

SW1353 = experiment: as above
Outline: as §2

SW872 = experiment: as above
Outline: as §2

RD-ES [7] = experiment: as above
Outline: as §2

HT1080 = experiment: as above
Outline: as §2

HS729 = experiment: as above
Outline: as §2

KHOS-240S [8] = experiment: as above
Outline: as §2

G401 = experiment: as above
Outline: as §2

MES-SA = experiment: as above
Outline: as §2

SW684 = experiment: as above
Outline: as §2

SK-LMS-1 = experiment: as above
Outline: as §2

SYO-1 = experiment: as above
Outline: as §2

VA-ES-BJ = experiment: as above
Outline: as §2

KHOS-NP = experiment: as above
Outline: as §2

RD [9] = experiment: as above
Outline: as §2

SW982 [10] = experiment: as above
Outline: as §2

A204 = experiment: as above
Outline: as §2

COc1cc(CCc2cc(NC(=O)c3ccc(N4CC(C)NC(C)C4)cc3)n[nH]2)cc(OC)c1 (centres undefined) [AZD-4547]
relative viability
Settings	KHOS-240S [3]	RD [4]	RD-ES [2]	SK-ES-1 [1]	SW982 [5]
0.00017 µM	1.04	1.03	0.946	1.02	1
0.00051 µM	1.07	1.08	0.96	1.02	1
0.00152 µM	1.036	1.07	0.959	1.01	1.02
0.00457 µM	1.02	1.07	0.961	1	1.018
0.01372 µM	1.02	1.08	0.95	1.05	0.982
0.04115 µM	0.9306	1.1	0.9048	0.947	1
0.1235 µM	0.841	1.063	0.89	0.928	1
0.3704 µM	0.784	1.08	0.871	0.878	0.995
1.111 µM	0.72	1.06	0.808	0.821	0.922
3.333 µM	0.619	0.858	0.6084	0.483	0.591
10 µM	0.288	0.419	0.173	0.141	0.206

Settings	standardised AUC
A204	0.742
G401	0.729
HS729	0.752
HT1080	0.965
KHOS-240S [8]	0.831
KHOS-NP	0.947
MES-SA	0.857
RD [9]	0.948
RD-ES [7]	0.903
SK-ES-1 [6]	0.869
SK-LMS-1	0.988
SW684	0.965
SW872	0.934
SW982 [10]	0.91
SW1353	0.873
SYO-1	0.698
VA-ES-BJ	0.987

CNC(=O)c1nnc(NC(=O)C2CC2)cc1Nc1cccc(-c2ncn(C)n2)c1OC
relative viability
Settings	KHOS-240S [3]	RD [4]	RD-ES [2]	SK-ES-1 [1]	SW982 [5]
0.00017 µM	1.08	1.1	0.987	1.03	1.05
0.00051 µM	1.07	1.11	1.019	1.03	1.06
0.00152 µM	1.059	1.12	1.01	1.1	1.05
0.00457 µM	1.05	1.12	0.988	1.03	1.04
0.01372 µM	1.07	1.1	1.02	1.07	1.05
0.04115 µM	1.04	1.09	1.02	1.04	1.06
0.1235 µM	1.06	1.11	1.05	1.02	1.06
0.3704 µM	1.07	1.08	1.06	1.04	1.07
1.111 µM	1.08	1.1	1	0.968	1.06
3.333 µM	1.06	1.09	0.998	0.891	1.02
10 µM	1.03	0.994	0.847	0.517	0.722

Settings	standardised AUC
A204	0.978
G401	0.99
HS729	0.956
HT1080	0.992
KHOS-240S [8]	0.976
KHOS-NP	0.993
MES-SA	0.984
RD [9]	0.983
RD-ES [7]	0.99
SK-ES-1 [6]	0.958
SK-LMS-1	0.988
SW684	0.991
SW872	0.983
SW982 [10]	0.983
SW1353	0.986
SYO-1	0.989
VA-ES-BJ	0.986
